Assay results: patent publication US20180154170A1, “METHODS AND COMPOSITIONS FOR TREATING MENTAL DISORDERS AND CONDITIONS” (priority 2015, published 2018)

What was measured:
[1] = tested on: AMPA and NMDA receptors in the NAcc; assay: Tail suspension test with optical reactivation of dentate gyrus positive memory cells, glutamate antagonists infused into the NAcc; format: in vivo; conditions: stressed mice; bilateral infusion into NAcc (NBQX 22.3 mM, AP5 38.04 mM, 0.2 μl per hemisphere), 20 min before behavior; compared with saline
Procedure: Glutamate antagonists were bilaterally infused into the NAcc as follows: 0.2 μl per hemisphere of NBQX at a concentration of 22.3 mM to antagonize AMPA (α-amino-3-hydroxy-5-methyl-4-isoxazole propionic acid) receptors and 0.2 μl per hemisphere of AP5 at a concentration of 38.04 mM to antagonize NMDA (N-methyl-D-aspartate) receptors. Dopamine receptor antagonists were bilaterally infused into the NAcc as follows: 0.2 μl SCH23390 at a concentration of 6.16 mM to antagonize D1-like receptors and 0.2 μl raclopride at a concentration of 2.89 mM to antagonize D2-like receptors. A 26-gauge stainless steel double internal cannula (PlasticsOne) was used to bilaterally infuse each drug; the internal cannula was connected with a microsyringe pump by a PE20 tube to control the injection rate at 100 nl min^−1. The injection cannula was left connected for 5 min before removal to allow for diffusion. Finally, all behavior was performed 20 min following drug infusion.
Fibre optic implants on experimental mice were plugged into a patch cord before the tail suspension test. Each subject was hung by its tail from a bar 40 cm from the ground with a single piece of autoclave tape. […] An experimenter blind to each mouse condition and light treatment scored all the tail suspension videos by measuring the total time in seconds that each mouse spent struggling throughout the protocol.

[2] = tested on: magnocellular and parvocellular BLA neurons; conditions: bath application 10 μM; cells clamped at 0 mV; 10 Hz train; n=6 magnocellular, n=6 parvocellular
Procedure: Male mice (mean-PND 45 days) were anesthetized by isoflurane and their brains were dissected. By using a vibratome (VT1000S, Leica) 300 μm-thick parasagittal slices containing the basolateral amygdala were prepared in oxygenated cutting solution at ˜4° C. Slices were then incubated at −23° C. in oxygenated artificial cerebrospinal fluid (ACSF). The cutting solution contained 3 mM KCl, 0.5 mM CaCl2, 10 mM MgCl2, 25 mMNaHCO3, 1.2 mM NaHPO4, 10 mM d-glucose, 230 mM sucrose, saturated with 95% O/5% CO2 (pH 7.3, osmolarity 340 mOsm). […]
Whole-cell recordings in current-clamp or voltage-clamp mode were performed by using an infrared differential interference contrast microscope (BX51, Olympus) with a water immersion 40× objective (N.A. 0.8), and equipped with four automatic manipulators (Luigs & Neumann) and a CCD camera (Orca R2, Hamamatsu). […] Access resistance was monitored throughout the duration of the experiment and data acquisition was suspended whenever the resting membrane potential was depolarized above −50 mV or the access resistance was beyond 20 MΩ. […]
Optogenetic stimulation was achieved through a 460-nm LED light source (XLED1, Lumen Dynamics) driven by TTL input with a delay onset of 25 μs (subtracted off-line). […] In voltage-clamp cells were held at 0 mV for IPSC measurements, whereas, in current mode, EPSP and action potentials were measured at resting potentials. […]

[3] = reported in reference 28; cited from earlier work

NC(CCCP(=O)(O)O)C(=O)O (stereo not shown) [AP5]
behavioral effects of optically reactivating dentate gyrus cells labelled by a positive experience in the TST [1]: blocked

NS(=O)(=O)c1cccc2c1c([N+](=O)[O-])cc1nc(O)c(O)nc12 [NBQX]
behavioral effects of optically reactivating dentate gyrus cells labelled by a positive experience in the TST [1]: blocked

COc1ccc(-c2ccc(=N)n(CCCC(=O)O)n2)cc1 [gabazine]
inhibitory postsynaptic currents (IPSCs) evoked by optogenetic stimulation of Ppp1r1b-ChR2+ and Rspo2-ChR2+ fibers [2]: blocked

CNC1(c2ccccc2Cl)CCCCC1=O (stereo not shown) [ketamine]
antidepressant effect in patients [3]: rapid effects in a subset of patients
